We go through two molecules from publication PMC4077236 (Neurochemistry International, 2014).

The target in data set [1] is T1, human DAT (Homo sapiens, UniProt Q01959). Kind of data set: cell-based.
Description: (§1) In brief, the cells were washed twice with Krebs–Ringer–HEPES buffer (KHB; composition: 25 mM HEPES·NaOH, pH 7.4, 120 mM NaCl, 5 mM KCl, 1.2 mM CaCl2, and 1.2 mM MgSO4 supplemented with 5 mM D-glucose). Then, the diluted reference and sample compounds were added and incubated for 5 min to allow for equilibration with the transporters. Subsequently, the tritiated substrates were added and the reaction was stopped after 1 min (SERT and DAT) and 3 min (NET), respectively. Cells were lysed with 1% SDS and the released radioactivity was quantified by liquid scintillation counting. All determinations were performed in duplicate or triplicate.
(§2) The release of [^3H] labelled substrate was expressed as fractional rate (i.e., the radioactivity released within one fraction was expressed as a percentage of the total radioactivity present in the cells at the beginning of that fraction). Drug-induced release was calculated by subtracting the estimated basal release from total release during the first 8 min of drug exposure and is expressed as a percentage of radioactivity in the cell at the beginning of drug exposure. Data were normalized by using cpm values with no substance present (only solvent) as 100%. IC50 values were calculated using non-linear regression fits performed with Prism software (GraphPad 5.0, San Diego, CA, U.S.A.). Data transformed into Dixon plots were fitted by linear regression.
Data set [2] addresses T2, human NET (Homo sapiens, UniProt P23975).
For data set [3] the following is noted: stated without reference; cited from earlier work.
The conditions of data set [4]: ref Lin and Tsai, 2006; cited from earlier work.
The next data set in a line: in vivo. The note with it: human, plasma, po, 50 mg.
For data set [5], the target named is T2, human NET. This is another data set of the same source.
Description: (§3) For release studies, HEK-SERT, HEK-NET, or HEK-DAT cells were grown overnight on round glass coverslips (5-mm diameter, 40,000 cells per coverslip) placed in a 96-well plate and preloaded with 0.4 μM [^3H]dopamine, 0.1 μM [^3H]MPP+, or 0.4 μM [^3H]5-HT for 20 min at 37 °C in a final volume of 0.1 mL/well. […] A washout period of 40 min established a stable baseline for efflux of radioactivity; thereafter, substances were added and the experiment was started with the collection of fractions (2 min). At the end of the experiment, cells were lysed in 1% SDS and the released radioactivity was quantified by liquid scintillation counting.
(§4) The release of [^3H] labelled substrate was expressed as fractional rate (i.e., the radioactivity released within one fraction was expressed as a percentage of the total radioactivity present in the cells at the beginning of that fraction). Drug-induced release was calculated by subtracting the estimated basal release from total release during the first 8 min of drug exposure and is expressed as a percentage of radioactivity in the cell at the beginning of drug exposure. Data were normalized by using cpm values with no substance present (only solvent) as 100%.
Data set [6] has as its target T1, human DAT.
Description: as §3, §4
Data set [7] has as its target T1, human DAT. This is another data set of the same source.
Description: as §1, §2
The target in data set [8] is T2, human NET. Briefly: cell-based.
Data set [9] addresses T3, human SERT (Homo sapiens, UniProt P31645). Kind of data set: cell-based.
For data set [10] the following is noted: after levamisole administration; ref Hess et al., 2013; cited from earlier work.
Data set [11] addresses T3, human SERT.
Description: as §3, §4
Data set [12] concerns the target T3, human SERT. This is another data set of the same source.
[13] abbreviates: IC50 uptake inhibition DAT in the absence of cocaine, allosteric interaction experiment, dopamine uptake.
Where [14] appears, read: IC50 uptake inhibition DAT, HEK293 stably expressing human DAT, substrate [3H]dopamine 0.1 μM, 5 min preincubation.
The mark [15] stands for this setting: IC50 uptake inhibition NET in the absence of cocaine.

“And” between values parts separate entries of the source, which are not always exact repeats. Identical values can stand only once. “Also recorded” adds a separate entry of the source. Like-named read-outs stand apart in the source and are kept apart here.

T1 sequence (Q01959 whole entry): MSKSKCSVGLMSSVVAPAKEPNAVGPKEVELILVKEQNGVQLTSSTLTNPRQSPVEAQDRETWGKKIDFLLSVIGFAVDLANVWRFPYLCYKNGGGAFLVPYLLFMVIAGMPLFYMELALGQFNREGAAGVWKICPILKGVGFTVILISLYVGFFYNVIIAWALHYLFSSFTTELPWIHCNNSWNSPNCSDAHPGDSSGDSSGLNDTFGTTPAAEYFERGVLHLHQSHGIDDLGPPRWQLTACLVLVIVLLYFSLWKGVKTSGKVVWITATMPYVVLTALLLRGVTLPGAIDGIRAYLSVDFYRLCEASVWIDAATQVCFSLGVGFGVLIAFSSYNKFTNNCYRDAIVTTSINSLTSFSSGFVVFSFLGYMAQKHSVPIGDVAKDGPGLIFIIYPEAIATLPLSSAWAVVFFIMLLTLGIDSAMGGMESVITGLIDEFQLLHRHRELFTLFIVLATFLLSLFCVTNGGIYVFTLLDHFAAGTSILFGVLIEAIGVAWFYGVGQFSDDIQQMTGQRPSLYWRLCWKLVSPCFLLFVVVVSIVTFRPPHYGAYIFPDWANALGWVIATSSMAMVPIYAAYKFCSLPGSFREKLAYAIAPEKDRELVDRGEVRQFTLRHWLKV
T2 sequence (P23975 whole entry): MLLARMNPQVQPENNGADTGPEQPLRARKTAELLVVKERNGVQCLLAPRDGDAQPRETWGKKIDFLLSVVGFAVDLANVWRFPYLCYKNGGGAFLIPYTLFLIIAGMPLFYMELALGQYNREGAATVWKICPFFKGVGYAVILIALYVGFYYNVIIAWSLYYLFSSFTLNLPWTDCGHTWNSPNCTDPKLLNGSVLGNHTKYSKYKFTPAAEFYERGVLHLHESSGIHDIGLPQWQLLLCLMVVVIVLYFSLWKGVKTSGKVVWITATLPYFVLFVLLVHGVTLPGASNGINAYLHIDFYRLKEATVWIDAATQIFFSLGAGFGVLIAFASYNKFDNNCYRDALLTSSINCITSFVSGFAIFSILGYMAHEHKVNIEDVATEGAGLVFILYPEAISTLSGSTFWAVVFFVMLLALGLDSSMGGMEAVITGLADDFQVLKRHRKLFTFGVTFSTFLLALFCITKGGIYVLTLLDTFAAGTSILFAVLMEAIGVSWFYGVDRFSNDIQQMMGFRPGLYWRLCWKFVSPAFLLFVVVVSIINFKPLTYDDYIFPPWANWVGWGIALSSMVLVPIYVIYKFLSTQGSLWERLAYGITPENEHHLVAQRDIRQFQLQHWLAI
T3 sequence (P31645 whole entry): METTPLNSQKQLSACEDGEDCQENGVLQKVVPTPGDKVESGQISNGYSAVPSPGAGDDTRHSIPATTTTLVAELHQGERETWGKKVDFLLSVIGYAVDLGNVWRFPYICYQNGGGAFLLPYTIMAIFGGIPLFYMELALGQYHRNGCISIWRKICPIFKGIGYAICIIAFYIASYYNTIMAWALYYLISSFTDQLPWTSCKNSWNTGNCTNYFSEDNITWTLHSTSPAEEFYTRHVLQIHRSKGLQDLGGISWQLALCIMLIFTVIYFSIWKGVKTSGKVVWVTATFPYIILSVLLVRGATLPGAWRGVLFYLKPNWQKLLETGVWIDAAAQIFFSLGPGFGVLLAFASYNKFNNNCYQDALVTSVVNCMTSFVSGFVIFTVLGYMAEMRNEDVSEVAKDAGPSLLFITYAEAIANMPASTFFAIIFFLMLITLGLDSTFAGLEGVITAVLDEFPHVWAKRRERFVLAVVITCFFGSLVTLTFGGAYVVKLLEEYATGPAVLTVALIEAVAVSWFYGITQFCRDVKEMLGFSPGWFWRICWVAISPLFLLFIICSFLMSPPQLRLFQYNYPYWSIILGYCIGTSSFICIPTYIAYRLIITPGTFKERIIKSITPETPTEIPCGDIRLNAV

One may read the IC50 as the midpoint of a concentration-inhibition curve. High values mean a need for much substance, low ones inhibition by little substance. As usually defined, the pKa is the pH at which an ionisable group is half protonated. What is called Cmax is the maximum level reached in the sampled fluid or tissue. Consider `c1ccc([C@H]2CN3CCSC3=N2)cc1` [levamisole], for which the IC50 stood at 476 ± 1.54 µM against human DAT [1] (setting [13]), 209.9 ± 1.31 µM at human DAT [1] (setting [14]), 74.5 µM against human NET [8] (IC50 uptake inhibition NET) and 521 ± 2.3 µM at human NET [8] (setting [15]). Besides, the “less potent than cocaine in blocking norepinephrine uptake” value on human NET [2] came out at 100 fold. Besides, the pKa in data set [3] is 7. The “blood–brain barrier permeation” value in data set [4] was “readily permeates the blood–brain barrier”. This molecule gave a Cmax in “in vivo” of around 1500 nM. Also, the “substrate efflux NET” value at human NET [5] (100 μM levamisole, absence of monensin, [3H]MPP+ preloaded) is “slight increase; also recorded: slight increased substrate efflux”. Further, at human DAT [6] (100 μM levamisole, absence of monensin, [3H]dopamine preloaded), the “substrate efflux DAT” value is “no efflux was observed; also recorded: could not detect substrate efflux”. For the same molecule, the “less potent than cocaine in blocking dopamine uptake” value at human DAT [7] (relative to cocaine) amounted to 300 fold.

Regarding `NC1=NCC(c2ccccc2)O1` (stereo not drawn) [aminorex], the IC50 against human SERT [9] (IC50 uptake inhibition SERT) was 18.4 ± 1.12 µM; against human SERT [9] (IC50 uptake inhibition SERT in the absence of cocaine), 26.3 ± 1.03 µM; on human DAT [1] (setting [13]), 0.71 ± 1.05 µM; on human DAT [1] (setting [14]), 0.85 µM and 0.855 µM and < 1 µM; against human NET [8] (IC50 uptake inhibition NET), 0.33 µM and < 1 µM; against human NET [8] (setting [15]), 1.97 ± 1.2 µM. Also, in data set [10], the “time aminorex could be detected in human urine” value is listed as “up to 54 h”. Also, the “Dixon plot: binding relative to cocaine at NET” value on human NET [2] is given as “mutually exclusive manner”. In [3], the pKa is listed as 7.4. The “substrate efflux SERT” value on human SERT [11] was “strong release; also recorded: significant substrate release”. On human NET [5] (3 or 10 μM aminorex, presence and absence of 10 μM monensin), the “substrate efflux NET” value is given as “slight increase; also recorded: only a slight response”. In addition, the “Dixon plot: binding relative to cocaine at SERT” value on human SERT [12] was “mutually exclusive manner”. In addition, the “SERT inhibited at higher concentrations than NET and DAT” value at human SERT [12] is listed as 20 fold. Besides, the “SERT inhibitory effect compared to cocaine” value on human SERT [12] is listed as “more than 10 fold”. Further, the “substrate efflux DAT” value at human DAT [6] (50 μM aminorex, presence and absence of 10 μM monensin) is reported as “no releasing effect; also recorded: completely absent”. On human DAT [7] (uptake inhibition with one inhibitor varied at fixed concentration of the other), the “Dixon plot: binding relative to cocaine at DAT” value is recorded as “mutually exclusive manner”.
